Data taken from PubChem BioAssay (NCI).
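Interpolation was linear, between the two tested concentrations surrounding the appropriate level; five concentrations were tested over 48 hours in 96-well plates. TGI: total growth inhibition.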

What was measured:
Test in all cases: NCI tumour cell line growth inhibition, 48 h
PC-3 prostate = tested on: PC-3 prostate
RPMI-8226 leukemia = tested on: RPMI-8226 leukemia
OVCAR-8 ovarian = tested on: OVCAR-8 ovarian
CCRF-CEM leukemia = tested on: CCRF-CEM leukemia
MCF7 breast = tested on: MCF7 breast
EKVX NSCLC = tested on: EKVX NSCLC
MDA-MB-435 = tested on: MDA-MB-435
HCC-2998 colon = tested on: HCC-2998 colon
LOX IMVI melanoma = tested on: LOX IMVI melanoma
HL-60(TB) leukemia = tested on: HL-60(TB) leukemia
MDA-MB-231 breast = tested on: MDA-MB-231 breast
SF-295 CNS = tested on: SF-295 CNS
M14 melanoma = tested on: M14 melanoma
HOP-62 NSCLC = tested on: HOP-62 NSCLC
HOP-92 NSCLC = tested on: HOP-92 NSCLC
786-0 renal = tested on: 786-0 renal
CAKI-1 renal = tested on: CAKI-1 renal
SK-MEL-28 melanoma = tested on: SK-MEL-28 melanoma
SN12C renal = tested on: SN12C renal
MALME-3M melanoma = tested on: MALME-3M melanoma
UACC-257 melanoma = tested on: UACC-257 melanoma
SK-MEL-5 melanoma = tested on: SK-MEL-5 melanoma
IGROV1 ovarian = tested on: IGROV1 ovarian
HT29 colon = tested on: HT29 colon
HCT-15 colon = tested on: HCT-15 colon
OVCAR-4 ovarian = tested on: OVCAR-4 ovarian
TK-10 renal = tested on: TK-10 renal
SW-620 colon = tested on: SW-620 colon
SR leukemia = tested on: SR leukemia
RXF 393 renal = tested on: RXF 393 renal
UACC-62 melanoma = tested on: UACC-62 melanoma
COLO 205 colon = tested on: COLO 205 colon
K-562 leukemia = tested on: K-562 leukemia
MOLT-4 leukemia = tested on: MOLT-4 leukemia
SK-OV-3 ovarian = tested on: SK-OV-3 ovarian
DU-145 prostate = tested on: DU-145 prostate
SF-268 CNS = tested on: SF-268 CNS
SNB-75 CNS = tested on: SNB-75 CNS
A549 NSCLC = tested on: A549 NSCLC
MDA-N = tested on: MDA-N
NCI-H23 lung = tested on: NCI-H23 lung
T-47D breast = tested on: T-47D breast
KM12 colon = tested on: KM12 colon
NCI/ADR-RES ovarian = tested on: NCI/ADR-RES ovarian
HCT-116 colon = tested on: HCT-116 colon
HS 578T breast = tested on: HS 578T breast
UO-31 renal = tested on: UO-31 renal
NCI-H522 lung = tested on: NCI-H522 lung
ACHN renal = tested on: ACHN renal
SK-MEL-2 melanoma = tested on: SK-MEL-2 melanoma
OVCAR-5 ovarian = tested on: OVCAR-5 ovarian
U251 CNS = tested on: U251 CNS
NCI-H460 lung = tested on: NCI-H460 lung
NCI-H226 lung = tested on: NCI-H226 lung
SNB-19 CNS = tested on: SNB-19 CNS

For `CCOC(=O)CSc1[nH]c(NC(=S)Nc2ccccc2)c(C(N)=O)c1C(N)=O`, the TGI (PC-3 prostate) was greater than 10 µM, the TGI (RPMI-8226 leukemia) was greater than 10 µM and the TGI (OVCAR-8 ovarian) was greater than 10 µM. The TGI (CCRF-CEM leukemia) was greater than 10 µM, the TGI (MCF7 breast) was greater than 10 µM and the TGI (EKVX NSCLC) was greater than 10 µM. For the same compound, the TGI (MDA-MB-435) was greater than 10 µM, the TGI (HCC-2998 colon) was greater than 10 µM and the TGI (LOX IMVI melanoma) was greater than 10 µM. The TGI (HL-60(TB) leukemia) was 4.78 µM, the TGI (MDA-MB-231 breast) was greater than 10 µM and the TGI (SF-295 CNS) was greater than 10 µM. For the same compound, the TGI (M14 melanoma) was greater than 10 µM, the TGI (HOP-62 NSCLC) was greater than 10 µM and the TGI (HOP-92 NSCLC) was greater than 10 µM. The TGI (786-0 renal) was greater than 10 µM, the TGI (CAKI-1 renal) was greater than 10 µM and the TGI (SK-MEL-28 melanoma) was greater than 10 µM. The TGI (SN12C renal) was greater than 10 µM, the TGI (MALME-3M melanoma) was greater than 10 µM and the TGI (UACC-257 melanoma) was greater than 10 µM. For the same compound, the TGI (SK-MEL-5 melanoma) was greater than 10 µM, the TGI (IGROV1 ovarian) was greater than 10 µM and the TGI (HT29 colon) was greater than 10 µM. For the same compound, the TGI (HCT-15 colon) was greater than 10 µM, the TGI (OVCAR-4 ovarian) was greater than 10 µM and the TGI (TK-10 renal) was greater than 10 µM. The TGI (SW-620 colon) was greater than 10 µM, the TGI (SR leukemia) was greater than 10 µM and the TGI (RXF 393 renal) was greater than 10 µM. The TGI (UACC-62 melanoma) was greater than 10 µM, the TGI (COLO 205 colon) was greater than 10 µM and the TGI (K-562 leukemia) was greater than 10 µM. It also gave a TGI (MOLT-4 leukemia) greater than 10 µM, a TGI (SK-OV-3 ovarian) greater than 10 µM and a TGI (DU-145 prostate) greater than 10 µM. The TGI (SF-268 CNS) was greater than 10 µM, the TGI (SNB-75 CNS) was greater than 10 µM and the TGI (A549 NSCLC) was greater than 10 µM. The TGI (MDA-N) was greater than 10 µM, the TGI (NCI-H23 lung) was greater than 10 µM and the TGI (T-47D breast) was greater than 10 µM. For the same compound, the TGI (KM12 colon) was greater than 10 µM.
Work on `C#CC(O)/C=C/C(O)CCCC(O)CC#CC(O)C#CC(O)CCCC(O)/C=C/CCCC(=O)CCCCCCCCCCCCCCCC(O)C(O)C#CC(=O)O` (configuration not stated) yielded a TGI (PC-3 prostate) greater than 50 µM, a TGI (RPMI-8226 leukemia) greater than 50 µM and a TGI (OVCAR-8 ovarian) greater than 50 µM. For the same compound, the TGI (CCRF-CEM leukemia) was 36.3 µM, the TGI (MCF7 breast) was greater than 50 µM and the TGI (EKVX NSCLC) was greater than 50 µM. The TGI (MDA-MB-435) was greater than 50 µM, the TGI (HCC-2998 colon) was greater than 50 µM and the TGI (LOX IMVI melanoma) was 20.8 µM. The TGI (NCI/ADR-RES ovarian) was greater than 50 µM, the TGI (HL-60(TB) leukemia) was 27.4 µM and the TGI (MDA-MB-231 breast) was greater than 50 µM. It also gave a TGI (SF-295 CNS) greater than 50 µM, a TGI (M14 melanoma) greater than 50 µM and a TGI (HOP-62 NSCLC) greater than 50 µM. The TGI (HOP-92 NSCLC) was greater than 50 µM, the TGI (786-0 renal) was greater than 50 µM and the TGI (HCT-116 colon) was greater than 50 µM. The TGI (CAKI-1 renal) was greater than 50 µM, the TGI (SK-MEL-28 melanoma) was greater than 50 µM and the TGI (SN12C renal) was greater than 50 µM. For the same compound, the TGI (HS 578T breast) was greater than 50 µM, the TGI (UO-31 renal) was 22.1 µM and the TGI (MALME-3M melanoma) was greater than 50 µM. For the same compound, the TGI (UACC-257 melanoma) was greater than 50 µM, the TGI (SK-MEL-5 melanoma) was greater than 50 µM and the TGI (IGROV1 ovarian) was 21.1 µM. The TGI (HT29 colon) was greater than 50 µM, the TGI (HCT-15 colon) was greater than 50 µM and the TGI (OVCAR-4 ovarian) was 28.2 µM. For the same compound, the TGI (TK-10 renal) was greater than 50 µM, the TGI (NCI-H522 lung) was 17.5 µM and the TGI (SR leukemia) was greater than 50 µM. The TGI (ACHN renal) was greater than 50 µM, the TGI (RXF 393 renal) was greater than 50 µM and the TGI (UACC-62 melanoma) was greater than 50 µM. For the same compound, the TGI (COLO 205 colon) was greater than 50 µM, the TGI (K-562 leukemia) was greater than 50 µM and the TGI (SK-MEL-2 melanoma) was greater than 50 µM. It also gave a TGI (MOLT-4 leukemia) greater than 50 µM, a TGI (SK-OV-3 ovarian) greater than 50 µM and a TGI (OVCAR-5 ovarian) greater than 50 µM. The TGI (DU-145 prostate) was greater than 50 µM, the TGI (U251 CNS) was greater than 50 µM and the TGI (SF-268 CNS) was greater than 50 µM. It also gave a TGI (SNB-75 CNS) greater than 50 µM, a TGI (NCI-H460 lung) greater than 50 µM and a TGI (A549 NSCLC) greater than 50 µM. It also gave a TGI (MDA-N) greater than 50 µM, a TGI (NCI-H226 lung) greater than 50 µM and a TGI (NCI-H23 lung) greater than 50 µM. It also gave a TGI (T-47D breast) greater than 50 µM, a TGI (SNB-19 CNS) greater than 50 µM and a TGI (KM12 colon) greater than 50 µM.
